The values that follow come from US12662489B2 (Sitryx Therapeutics Limited, priority 2023, dated 2026).

Assay [1] addresses T1, MTHFD1 recombinant human enzyme (Homo sapiens, UniProt P11586).
T1 sequence (P11586 2-291 limits assumed): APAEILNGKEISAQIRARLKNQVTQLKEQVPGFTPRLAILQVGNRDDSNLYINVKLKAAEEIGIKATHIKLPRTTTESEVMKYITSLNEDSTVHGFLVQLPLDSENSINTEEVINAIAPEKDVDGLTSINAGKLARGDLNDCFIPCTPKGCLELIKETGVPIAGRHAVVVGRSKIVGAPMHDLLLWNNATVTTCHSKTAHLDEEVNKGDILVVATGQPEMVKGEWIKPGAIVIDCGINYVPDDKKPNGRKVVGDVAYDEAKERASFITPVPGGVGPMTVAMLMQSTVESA
The assay can be described thus: MTHFD1 inhibition assay (NAD(P)H-Glo luminescence). Particulars: MTHFD1 IC50, recombinant human enzyme 200 nM, NADP, band.

Assay [2] concerns human CD4+ T cells. Briefly: Human CD4+ T-cell proliferation assay (CFSE, CD3/28 beads). Particulars: read-out: Proliferation IC50.
Experimental: Cells were incubated at room temperature for 8 minutes in a rotator in the dark. 13 mL cRPMI was added to each tube and cells were centrifuged at 500×g for 4 minutes at room temperature before pellets were resuspended in 10 mL cRPMI. Cells were counted using the Auto2000 Cellometer and AO/PI viability stain and concentration adjusted to 0.6×10^6 cells/mL in cRPMI. […] Control wells were included for flow cytometry and edge wells were filled with 200 μL 1×dPBS. Cells were incubated at 37° C., 5% CO2 for 2 days before compound treatment. […] Cells were incubated at 37° C., 5% CO2 for a further 2 days prior to flow staining and supernatant harvest.
On the final day plates were centrifuged at 500×g for 4 minutes at room temperature. 125 μL of supernatants were transferred to a V bottom 96 well polystyrene plate and stored at −80° C. Plates were gently vortexed to disrupt the cell pellets before 125 μL 1×PBS was added to each well. Plates were centrifuged at 500×g for 4 minutes at room temperature and supernatants removed from the plates by aspirating. Plates were gently vortexed and 30 μL of live/dead stain (Invitrogen, L34975) in 1×dPBS was added and incubated for 15 minutes in the dark at 4° C. […] 100 μL of flow cytometry buffer was added and plates were centrifuged at 500×g for 4 minutes before supernatants were aspirated from the plates. Wells were resuspended in 200 μL flow cytometry buffer and plates stored at 4° C. before being run on the flow cytometer.
Data was analysed using FlowJo and the compensation matrix applied to all samples. The gates were set using unstained and unstimulated samples.
For assay [3], the target named is T2, MTHFD2 recombinant human enzyme (Homo sapiens, UniProt P13995).
T2 sequence (P13995 36-350): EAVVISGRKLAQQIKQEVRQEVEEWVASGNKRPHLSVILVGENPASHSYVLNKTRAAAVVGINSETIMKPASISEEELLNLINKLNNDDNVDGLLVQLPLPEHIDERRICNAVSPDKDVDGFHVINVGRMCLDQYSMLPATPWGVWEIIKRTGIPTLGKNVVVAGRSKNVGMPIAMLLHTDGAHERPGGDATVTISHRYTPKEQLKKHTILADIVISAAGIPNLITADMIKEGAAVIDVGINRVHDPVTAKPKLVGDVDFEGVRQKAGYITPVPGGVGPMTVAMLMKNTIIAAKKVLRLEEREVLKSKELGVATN
The assay can be described thus: MTHFD2 inhibition assay (NAD(P)H-Glo luminescence). Particulars: for MTHFD1/MTHFD2 IC50 ratio: selectivity of MTHFD2 inhibition over MTHFD1, band.

Structures are written as SMILES.

Regarding `[2H]C([2H])([2H])Oc1cc(C(=O)N2CCc3c(c(=O)oc4c(C)c(N5CCN(C)[C@@H](COC)C5)cc(C)c34)C2)c(F)cc1C(=O)NS(=O)(=O)N1CC2CC2C1` (stereo partly drawn) [Example 251, N-((3-azabicyclo[3.1.0]hexan-3-yl)sulfonyl)-5-fluoro-2-(methoxy-d3)-4-(8-((R)-3-(methoxymethyl)-4-methylpiperazin-1-yl)-7,10-dimethyl-5-oxo-1,3,4,5-tetrahydro-2H-chromeno[3,4-c]pyridine-3-carbonyl)benzamide], the IC50 is 100 to 1000 nM in assay [1], 30 to 100 nM in assay [2] and 1 to 10 nM in assay [3]. In addition, in assay [3], the “MTHFD1/MTHFD2 IC50 ratio” value is given as “J (>30)”.

On to `CCOc1cc(C(=O)N2CCc3c(c(=O)oc4c(C)c(N5CCN(C)[C@@H](COC)C5)cc(C)c34)C2)c(F)cc1C(=O)NS(=O)(=O)N1CCCC1` [Example 202, (R)-2-ethoxy-5-fluoro-4-(8-(3-(methoxymethyl)-4-methylpiperazin-1-yl)-7,10-dimethyl-5-oxo-1,3,4,5-tetrahydro-2H-chromeno[3,4-c]pyridine-3-carbonyl)-N-(pyrrolidin-1-ylsulfonyl)benzamide], for which the IC50 is 100 to 1000 nM in assay [1], 10 to 30 nM in assay [2] and 10 to 100 nM in assay [3]. For the same compound, in assay [3], the “MTHFD1/MTHFD2 IC50 ratio” value is on record as “H (>9.0 to 30)”.

`COC[C@H]1CN(c2cc(C)c3c4c(c(=O)oc3c2C)CN(C(=O)c2cc(N(C)C)c(C(=O)NS(=O)(=O)N3C5CCC3CC5)cc2Cl)CC4)CCN1C` [Example 193, (R)-N-((7-azabicyclo[2.2.1]heptan-7-yl)sulfonyl)-5-chloro-2-(dimethylamino)-4-(8-(3-(methoxymethyl)-4-methylpiperazin-1-yl)-7,10-dimethyl-5-oxo-1,3,4,5-tetrahydro-2H-chromeno[3,4-c]pyridine-3-carbonyl)benzamide]: the IC50 in assay [1] was in the range of 1000 to 5000 nM; in assay [2], 30 to 100 nM; in assay [3], 10 to 100 nM. For the same compound, the “MTHFD1/MTHFD2 IC50 ratio” value in assay [3] is “J (>30)”.

With `COC[C@H]1CN(c2cc(F)c3c4c(c(=O)oc3c2C)CN(C(=O)c2cc(N(C)C)c(C(=O)NS(=O)(=O)N3CCCC3)cc2F)CC4)CCN1C` [Example 308, (R)-2-(dimethylamino)-5-fluoro-4-(10-fluoro-8-(3-(methoxymethyl)-4-methylpiperazin-1-yl)-7-methyl-5-oxo-1,3,4,5-tetrahydro-2H-chromeno[3,4-c]pyridine-3-carbonyl)-N-(pyrrolidin-1-ylsulfonyl)benzamide], the IC50 in assay [1] lay within 100 to 1000 nM; in assay [2] it was 1 to 10 nM; in assay [3], 1 to 10 nM. Besides, in assay [3], the “MTHFD1/MTHFD2 IC50 ratio” value is “J (>30)”.

With `COC[C@H]1CN(c2cc(C)c3c4c(c(=O)oc3c2C)CN(C(=O)c2ccc(C(=O)NS(=O)(=O)N(C)C3CCCC3)cc2F)CC4)CCN1C` [Example 199, (R)-N-(N-cyclopentyl-N-methylsulfamoyl)-3-fluoro-4-(8-(3-(methoxymethyl)-4-methylpiperazin-1-yl)-7,10-dimethyl-5-oxo-1,3,4,5-tetrahydro-2H-chromeno[3,4-c]pyridine-3-carbonyl)benzamide], the IC50 in assay [1] lay within 1000 to 5000 nM; in assay [2], 100 to 1000 nM; in assay [3] it was 100 to 1000 nM. In addition, the “MTHFD1/MTHFD2 IC50 ratio” value in assay [3] was “H (>9.0 to 30)”.

In the case of `[2H]C([2H])([2H])Oc1cc(C(=O)N2CCc3c(c(=O)oc4c(C)c(N5CCN(C)[C@@H](COC)C5)cc(Cl)c34)C2)c(F)cc1C(=O)NS(=O)(=O)N1CCCC1` [Example 246, (R)-4-(10-chloro-8-(3-(methoxymethyl)-4-methylpiperazin-1-yl)-7-methyl-5-oxo-1,3,4,5-tetrahydro-2H-chromeno[3,4-c]pyridine-3-carbonyl)-5-fluoro-2-(methoxy-d3)-N-(pyrrolidin-1-ylsulfonyl)benzamide], the IC50 in assay [1] was 100 to 1000 nM; in assay [2] it was 100 to 1000 nM; in assay [3], 1 to 10 nM. Besides, in assay [3], the “MTHFD1/MTHFD2 IC50 ratio” value is recorded as “J (>30)”.

For the compound `COC[C@H]1CN(c2cc(C)c3c4c(c(=O)oc3c2C)CN(C(=O)c2cc(OC3CC3)c(C(=O)NS(=O)(=O)N3CCCC3)cc2F)CC4)CCN1C` [Example 263, (R)-2-cyclopropoxy-5-fluoro-4-(8-(3-(methoxymethyl)-4-methylpiperazin-1-yl)-7,10-dimethyl-5-oxo-1,3,4,5-tetrahydro-2H-chromeno[3,4-c]pyridine-3-carbonyl)-N-(pyrrolidin-1-ylsulfonyl)benzamide], the IC50 in assay [1] lay in the range of 10 to 100 nM; in assay [2], 10 to 30 nM; in assay [3], 1 to 10 nM. In assay [3], the “MTHFD1/MTHFD2 IC50 ratio” value is listed as “J (>30)”.

Regarding `CCc1cc(N2CCN(C)[C@@H](COC)C2)c(C)c2oc(=O)c3c(c12)CCN(C(=O)c1cc(N(C)C)c(C(=O)NS(=O)(=O)N2CCCC2)cc1F)C3` [Example 245, (R)-2-(dimethylamino)-4-(10-ethyl-8-(3-(methoxymethyl)-4-methylpiperazin-1-yl)-7-methyl-5-oxo-1,3,4,5-tetrahydro-2H-chromeno[3,4-c]pyridine-3-carbonyl)-5-fluoro-N-(pyrrolidin-1-ylsulfonyl)benzamide], the IC50 in assay [1] is 1000 to 5000 nM; in assay [2] it was 30 to 100 nM; in assay [3] it was 1 to 10 nM. In addition, the “MTHFD1/MTHFD2 IC50 ratio” value in assay [3] is recorded as “J (>30)”.

As to `COC[C@H]1CN(c2cc(Cl)c3c4c(c(=O)oc3c2C)CN(C(=O)c2cc(OC)c(C(=O)NS(=O)(=O)N3CCCC3)cc2F)CC4)CCN1C` [Example 262, (R)-4-(10-chloro-8-(3-(methoxymethyl)-4-methylpiperazin-1-yl)-7-methyl-5-oxo-1,3,4,5-tetrahydro-2H-chromeno[3,4-c]pyridine-3-carbonyl)-5-fluoro-2-methoxy-N-(pyrrolidin-1-ylsulfonyl)benzamide], the IC50 lay in the range of 1000 to 5000 nM in assay [1], 30 to 100 nM in assay [2] and 1 to 10 nM in assay [3]. In addition, the “MTHFD1/MTHFD2 IC50 ratio” value in assay [3] was “J (>30)”.

With `COC[C@H]1CN(c2cc(C)c3c4c(c(=O)oc3c2C)CN(C(=O)c2ccc(C(=O)NS(=O)(=O)N3C5CCC3CC5)c(OC)c2)CC4)CCN1C` [Example 226, (R)-N-((7-azabicyclo[2.2.1]heptan-7-yl)sulfonyl)-2-methoxy-4-(8-(3-(methoxymethyl)-4-methylpiperazin-1-yl)-7,10-dimethyl-5-oxo-1,3,4,5-tetrahydro-2H-chromeno[3,4-c]pyridine-3-carbonyl)benzamide], the IC50 in assay [1] was 100 to 1000 nM; in assay [2], 30 to 100 nM; in assay [3], 10 to 100 nM. In assay [3], the “MTHFD1/MTHFD2 IC50 ratio” value is “J (>30)”.

In the case of `CCOc1c(C(=O)NS(=O)(=O)N2C3CCC2CC3)ccc(C(=O)N2CCc3c(c(=O)oc4c(C)c(N5CCN(C)[C@@H](COC)C5)cc(C)c34)C2)c1F` [Example 228], the IC50 is 100 to 1000 nM in assay [1], 1 to 10 nM in assay [2] and 10 to 100 nM in assay [3]. Besides, the “MTHFD1/MTHFD2 IC50 ratio” value in assay [3] is reported as “G (^ 3 to 9.0)”.

As for `COC[C@H]1CN(c2cc(C)c3c4c(c(=O)oc3c2C)CN(C(=O)c2cc(N(C)C)c(C(=O)NS(=O)(=O)N3C[C@@H]5C[C@H]3CO5)cc2F)CC4)CCN1C` [Example 313, N-(((1S,4S)-2-oxa-5-azabicyclo[2.2.1]heptan-5-yl)sulfonyl)-2-(dimethylamino)-5-fluoro-4-(8-((R)-3-(methoxymethyl)-4-methylpiperazin-1-yl)-7,10-dimethyl-5-oxo-1,3,4,5-tetrahydro-2H-chromeno[3,4-c]pyridine-3-carbonyl)benzamide], the IC50 in assay [1] is 100 to 1000 nM; in assay [2], 30 to 100 nM; in assay [3], 1 to 10 nM. Besides, in assay [3], the “MTHFD1/MTHFD2 IC50 ratio” value was “J (>30)”.

Turning to `COC[C@H]1CN(c2ccc3c4c(c(=O)oc3c2C)CN(C(=O)c2cc(N(C)C)c(C(=O)NS(=O)(=O)N3CC5CC5C3)cc2F)CC4)CCN1C` (stereo partly drawn) [Example 181, N-((3-azabicyclo[3.1.0]hexan-3-yl)sulfonyl)-2-(dimethylamino)-5-fluoro-4-(8-((R)-3-(methoxymethyl)-4-methylpiperazin-1-yl)-7-methyl-5-oxo-1,3,4,5-tetrahydro-2H-chromeno[3,4-c]pyridine-3-carbonyl)benzamide], the IC50 is 100 to 1000 nM in assay [1], 10 to 30 nM in assay [2] and 10 to 100 nM in assay [3]. The “MTHFD1/MTHFD2 IC50 ratio” value in assay [3] is recorded as “H (>9.0 to 30)”.

With `COC[C@H]1CN(c2cc(C)c3c4c(c(=O)oc3c2C)CN(C(=O)c2ccc(C(=O)NS(=O)(=O)N3CCCC3)c(OC(F)F)c2F)CC4)CCN1C` [Example 171, (R)-2-(difluoromethoxy)-3-fluoro-4-(8-(3-(methoxymethyl)-4-methylpiperazin-1-yl)-7,10-dimethyl-5-oxo-1,3,4,5-tetrahydro-2H-chromeno[3,4-c]pyridine-3-carbonyl)-N-(pyrrolidin-1-ylsulfonyl)benzamide], the IC50 lay within 100 to 1000 nM in assay [1], 100 to 1000 nM in assay [2] and 10 to 100 nM in assay [3]. Also, in assay [3], the “MTHFD1/MTHFD2 IC50 ratio” value is recorded as “G (^ 3 to 9.0)”.
